Data reported in patent US11612577B2, “Biomarkers of METAP2 inhibitors and applications thereof” (SynDevRx, Inc., priority 2018, dated 2023).
Read-outs that look alike come from different tables or passages of the source.

Columns and labels:
[1] = cited from earlier work
[2] = requires extended intravenous administration; cited from earlier work
[3] = cited from earlier work; remark: listed apart in the source
[4] = BYL-719 induced hyperglycemia in C57Bl/6 mice, ZGN-1061 pre-treatment; type: in vivo
Protocol: The following is an example showing that MetAP2 inhibitors, specifically ZGN-1061 can be used in combination with PI3K inhibitors, specifically BYL-719, to treat cancer and to attenuate treatment-induced metabolic dysfunction. In this example, male C57BI/6 mice, age 10-12 weeks, were used. The mice (n=8/treatment group) were administered doses of either vehicle control (10 mM phosphate in 5% mannitol, pH 7.2), ZGN-1061 alone, ZGN-1061 in combination with BYL-719 or BYL-719 alone, as indicated in Table 4. In Table 4, the time of dose indicates the time relative to the administration of BYL-719. Blood glucose was monitored using 10 ul of blood taken from the tail of the mice and a glucometer, starting prior to the BYL-719 administration (time 0) and then again at various times points (15, 30, 60, 90, 120 and 180 minutes) after the administration of BYL-719.

[5] = human, in vivo; cited from earlier work

In the case of `CO[C@@H]1[C@H](OC(=O)NC(=O)CCl)CC[C@]2(CO2)[C@H]1[C@@]1(C)O[C@@H]1CC=C(C)C` [TNP-470, chloroacetylcarbamoylfumagillol], the toxicity in humans ([1]; dose-limiting neurotoxicity) is listed as “too toxic for human use”, the MTD ([1]; in combination with paclitaxel, dosed three times per week, neuropsychiatric toxicities) is listed as 60 mg/m2 and the half-life [2] is listed as “short half-life”. The obesity ([3]; mice, 15 or 20 mg/kg every other day) was “prevention of obesity” and the body weight ([3]; ob/ob mice, daily doses 2.5 mg/kg to 10 mg/kg) was “weight loss”.
For `CO[C@@H]1[C@H](OC(=O)N2CC(CCN3CCOCC3)C2)CC[C@]2(CO2)[C@H]1[C@@]1(C)O[C@@H]1CC=C(C)C` [ZGN-1061], the “hyperglycemia induced by BYL-719” value ([4]; pre-treatment 0.5 mg/kg SC at -4 h, -24 h or -72 h (QD x3) before BYL-719 45 mg/kg PO) was “attenuated hyperglycemia”.
In the case of `CO[C@@H]1[C@H](OC(=O)/C=C/c2ccc(OCCN(C)C)cc2)CC[C@]2(CO2)[C@H]1[C@@]1(C)O[C@@H]1CC=C(C)C` [CKD-732], the MTD ([1]; every fourth day schedule, confusion and insomnia) is listed as 15 mg/m2/day and the body weight ([3]; C57BL/6J mice and SD rats, 5 mg/kg/day) is listed as “weight loss”.
In the case of `CO[C@@H]1[C@H](OC(=O)/C=C/C=C/C=C/C=C/C(=O)O)CC[C@]2(CO2)[C@H]1[C@@]1(C)O[C@@H]1CC=C(C)C` [fumagillin], the body weight ([3]; C57BL/6 mice, oral 1 mg/kg daily) is listed as “weight loss”.
For `Cc1nc(NC(=O)N2CCC[C@H]2C(N)=O)sc1-c1ccnc(C(C)(C)C(F)(F)F)c1` [BYL-719, alpelisib], the blood glucose ([4]; BYL-719 45 mg/kg PO, male C57Bl/6 mice) was “elicited robust hyperglycemia”.
In the case of pembrolizumab, the “patients with grade 3 or 4 hyperglycemia” value [5] is given as 3-6% and the “patients with hyperglycemic events” value [5] is given as 45-49%.
